The source of these data is paper PMC11207040, “Synthesis and Biological Studies of New Temporin A Analogs Containing Unnatural Amino Acids in Position 7” (Pharmaceutics, 2024).

As usually defined, the IC50 is the concentration at which inhibition is half-maximal. The CC50 is the concentration at which the toxic effect on the cells reaches its halfway point.

The test system of one series is MDA-MB-231 cells. As to the kind of experiment: MTT antiproliferative assay, MDA-MB-231.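 As to SI (Selectivity Index), MDA-MB-231: numerator is the IC50 in non-tumorigenic MCF-12F cells.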 The note with it: for IC50: MTT, 72 h, read-out: Mean IC50 ± SD, MDA-MB-231; for SI (Selectivity Index), MDA-MB-231: SI = IC50 MCF-12F/IC50 tumor cells. The class given is cell-based, human. Here is the method:
(§1) The cell lines BALB 3T3 (mouse embryonic fibroblasts) and MCF-12F (human breast epithelial cells) were used as models for healthy tissue. The MCF-7 and MDA-MB-231 cell lines were used as in vitro models for luminal A- and basal B-type breast cancer, respectively. Cell lines were obtained from the American Type Cultures Collection (ATCC, Manassas, VA, USA). Cells were cultured in Dulbecco modified Eagle’s medium (DMEM) supplemented with 10% fetal bovine serum (FBS), 100 U/mL penicillin, and 0.1 mg/mL streptomycin (Sigma-Aldrich, Schnelldorf, Germany) in an incubator at 37 °C, 5% CO2 and 95% humidity. Plastic flasks 75 cm^2 (Biologix, Lenexa, KS, USA) were used to grow the cells.
(§2) The antiproliferative activity testing was performed on cell cultures using the MTT-dye reduction assay. This assay is based on the metabolism of MTT to insoluble formazan by mitochondrial reductases. The formazan concentration can be determined spectrophotometrically. The measured absorption is an indicator of cell viability. Cell lines (MCF-12F, MCF-7 and MDA-MB-231) were used in the experiments. Cells were plated at a density of 1 × 10^3 cells/100 µL in each well of 96-well microplates and allowed to adhere for 24 h before treatment with test compounds. A concentration range from 4 to 1000 μM was applied for 72 h. The formazan absorption was registered using a microplate reader at λ = 540 nm. Antiproliferative activities were expressed as IC50 values (concentrations required for 50% inhibition of cell growth).

The nature of series [1]: 3T3 NRU cytotoxicity/phototoxicity test. The class given is cell-based, mouse. The note with it: mouse; for CC50: cytotoxicity, no irradiation, BALB 3T3 clone A31, Neutral Red uptake, read-out: Mean CC50 ± SD, −Irr; for CC50 at 24 h: phototoxicity, irradiated 2.4 J/cm^2, BALB 3T3 clone A31, Neutral Red uptake, read-out: Mean CC50 ± SD, +Irr. The protocol: as §1
(§3) The cytotoxicity/phototoxicity testing was performed as described by the OECD Guidelines for the Testing of Chemicals, Section 4, Test No. 432: In Vitro 3T3 NRU Phototoxicity Test. BALB 3T3, clone A31 cells were grown in 75 cm^2 tissue culture flasks in DMEM high-glucose (4.5 g/L), 10% FBS, and antibiotics at 37.5 °C, in a humidified atmosphere under 5% CO2. Cells were plated at 1 × 10^4 cells / 100 μL culture medium in each well of 96-well microplates and allowed to adhere for 24 h before treatment with test compounds. Peptides were dissolved in DMSO and diluted with culture medium to working concentrations from 4 to 1000 μM. In phototoxicity tests, 96-well plates were irradiated (+Irr) with a dose of 2.4 J/cm^2 using an artificial solar light simulator Helios-iO (SERIC Ltd., Tokyo, Japan), and the cells were incubated for an additional 24 h. After treatment with a Neutral Red medium, washing, and application of the NR Desorb solution, the absorption was measured on a microplate reader at a wavelength of 540 nm. Cytotoxicity/phototoxicity was expressed as CC50 values (concentrations required for 50% cytotoxicity).

A further series deals with BALB 3T3 clone A31 cells. As to the kind of experiment: 3T3 NRU cytotoxicity/phototoxicity test. The settings on record: PIF = CC50 −Irr/CC50 +Irr; PIF < 2 = not phototoxic. The class given is cell-based, mouse. Here is the method:
as §1, §3

Series [2] relates to Pseudomonas aeruginosa NBIMCC 3700. Format: cell-based. The settings on record: broth dilution, 0 to 320 µg/mL, 24 h; NI = no inhibition monitored. Here is the method: (§4) The parent peptide Temporin A and the novel analogs were subjected to tests against model strains Escherichia coli NBIMCC 8785, Bacillus subtilis NBIMCC 3562, Arthrobacter oxydans NBIMCC 9333, Pseudomonas aeruginosa NBIMCC 3700, and Candida albicans NBIMCC 74, for the assessment of their antimicrobial activity. The strains were acquired from the National Bank for Industrial Microorganisms and Cell Cultures (NBIMCC, Bulgaria). The strain E. coli 8785 was cultured in Luria-Bertani broth (LB, HiMedia, Mumbai, India); B. subtilis 3562—in nutrient broth (NB, HiMedia, Mumbai, India); A. oxydans 9333; P. aeruginosa 3700—in meat peptone agar (MPA) medium; and C. albicans 74—in yeast mold (YM) medium. An incubator shaker ES-20/60 (Biosan, Latvia) was used for the cultivation and was set to 30 °C for B. subtilis 3562, A. oxydans 9333, and C. albicans 74; and 37 °C for E. coli 8785 and P. aeruginosa 3700, with a 24 h shaking period at 120 rpm. The microbial cultures were then adjusted to a turbidity of 0.5 McFarland using a Grant-bio DEN-1B densitometer (Grant Instruments, Royston, UK) for further use.
(§5) The minimal inhibitory concentration (MIC) of the peptides was determined using the broth dilution method. Stock solutions of the peptides with a concentration of 10 mg/mL in 10% EtOH/H2O were prepared. Suspensions of the bacteria in the corresponding media were added to 96-well U-shaped bottom polystyrene plates (Deltalab S.L., Spain) and exposed to the peptide in the concentration range from 0 to 320 µg/mL, and a 10% EtOH/H2O control, diluted using the same scheme as the peptides, was also used. The plates were then incubated under aerobic conditions at the corresponding temperature for 24 h. The MIC (µg/mL) was assumed as the lowest concentration of the antimicrobial, where there was visible inhibition of the strain. The absorbance was measured at 630 nm (Microplate reader PKL PPC 142, Paramedical srl, Salerno, Italy). To determine the minimal bactericidal concentration (MBC) and minimal fungicidal concentration (MFC), 10 μL from concentrations greater than or equal to the MIC was placed on the corresponding solid nutrient medium. The Petri dishes were then incubated at 30 or 37 °C for 24 h. All experiments were conducted in a triplicate.
In general terms: Dilution methods test growth across graded concentrations, often in twofold steps.

The test system of series [3] is Arthrobacter oxydans NBIMCC 9333. Format: cell-based. The settings on record: broth dilution, 0 to 320 µg/mL, 24 h; NI = no inhibition monitored. The protocol:
as §4, §5

Series [4] relates to Bacillus subtilis NBIMCC 3562. The class given is cell-based. The note with it: broth dilution, 0 to 320 µg/mL, 24 h; NI = no inhibition monitored. Here is the method:
as §4, §5

For series [5], the system named is Escherichia coli NBIMCC 8785. The class given is cell-based. The note with it: broth dilution, 0 to 320 µg/mL, 24 h; NI = no inhibition monitored. Here is the method: as §4, §5
A further series concerns MCF-7 cells. As to the kind of experiment: MTT antiproliferative assay, MCF-7.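 As to SI (Selectivity Index), MCF-7: numerator is the IC50 in non-tumorigenic MCF-12F cells.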 The class given is cell-based, human. The settings on record: for IC50: MTT, 72 h, read-out: Mean IC50 ± SD, MCF-7; for SI (Selectivity Index), MCF-7: SI = IC50 MCF-12F/IC50 tumor cells. Here is the method:
as §1, §2

Molecules are shown by their SMILES. Converted amounts (≈) assume the structure as drawn. Non-standard residues stand in square brackets, D forms with d. Residues, ends and D or L forms follow the SMILES beside them. Dab = NCC[C@H](N)C(=O)O

On to `CC[C@H](C)[C@H](NC(=O)CNC(=O)[C@H](CO)NC(=O)[C@H](CC(C)C)NC(=O)[C@@H](NC(=O)[C@H](CCN)NC(=O)CNC(=O)[C@@H](NC(=O)[C@H](CC(C)C)NC(=O)[C@@H]1CCCN1C(=O)[C@H](CC(C)C)NC(=O)[C@@H](N)Cc1ccccc1)[C@@H](C)CC)C(C)C)C(=O)N[C@@H](CC(C)C)C(N)=O` [DTDab, FLPLIG-Dab-VLSGIL-NH2] (H-FLPLIG[Dab]VLSGIL-NH2; N-terminus assumed), for which, in the series on MDA-MB-231 cells, the IC50 is 174.9 ± 1.35 µM and the “SI (Selectivity Index), MDA-MB-231” value worked out at 1.60. Further, in series [1], the cytotoxic concentration (CC50) stood at 210 ± 6.69 µM and the CC50 at 24 h turned out to be 207 ± 7.41 µM. The “PIF (photo irritation factor)” value in the series on BALB 3T3 clone A31 cells stood at 1.01. Further, in series [2], the “MIC, P. aeruginosa 3700” value is given as 320 µg/mL (≈ 239 µM). Besides, the “MIC, A. oxydans 9333” value in series [3] was 320 µg/mL (≈ 239 µM). Also, in series [4], the “MIC, B. subtilis 3562” value is given as 160 µg/mL (≈ 119 µM). Besides, in series [5], the “MIC, E. coli 8785” value came out at 320 µg/mL (≈ 239 µM). Moreover, in the series with MCF-7 cells, the half-maximal inhibitory concentration (IC50) was 157 ± 4.97 µM and the “SI (Selectivity Index), MCF-7” value came out at 1.78.
On to `CC[C@H](C)[C@H](NC(=O)CNC(=O)[C@H](CO)NC(=O)[C@H](CC(C)C)NC(=O)[C@@H](NC(=O)[C@H](CCCCN)NC(=O)CNC(=O)[C@@H](NC(=O)[C@H](CC(C)C)NC(=O)[C@@H]1CCCN1C(=O)[C@H](CC(C)C)NC(=O)[C@@H](N)Cc1ccccc1)[C@@H](C)CC)C(C)C)C(=O)N[C@@H](CC(C)C)C(N)=O` [DTF, FLPLIG-K-VLSGIL-NH2, reference compound] (H-FLPLIGKVLSGIL-NH2), for which, in the series with MDA-MB-231 cells, the IC50 worked out at 77 ± 2.92 µM and the “SI (Selectivity Index), MDA-MB-231” value is on record as 1.30. For the same compound, in series [1], the 50% cytotoxic concentration (CC50) came to 92.4 ± 2.82 µM and the 50% cytotoxic concentration (CC50) at 24 h worked out at 88.4 ± 1.48 µM. Also, the “PIF (photo irritation factor)” value in the series with BALB 3T3 clone A31 cells was found to be 1.05. For the same compound, the “MIC, P. aeruginosa 3700” value in series [2] came to 160 µg/mL (≈ 117 µM). Also, in series [3], the “MIC, A. oxydans 9333” value worked out at 80 µg/mL (≈ 58.4 µM). Moreover, in series [4], the “MIC, B. subtilis 3562” value came out at 80 µg/mL (≈ 58.4 µM). Also, the “MIC, E. coli 8785” value in series [5] is 320 µg/mL (≈ 234 µM). Moreover, in the series with MCF-7 cells, the IC50 is 49.8 ± 1.9 µM and the “SI (Selectivity Index), MCF-7” value is recorded as 2.02.
